Source: US20260176320A1, “MODULATORS OF G-PROTEIN COUPLED RECEPTORS” (priority 2018, published 2026)
Read-outs that look alike come from different tables or passages of the source.

Legend:
Format in all cases: cell-based
GIP-R = target: T1, GIP-R (Homo sapiens, UniProt P48546); experiment: HitHunter cAMP assay (GIP-R); conditions: cAMP; for Emax: read-out: (Emax) GIP-R
T1 sequence (P48546 22-466): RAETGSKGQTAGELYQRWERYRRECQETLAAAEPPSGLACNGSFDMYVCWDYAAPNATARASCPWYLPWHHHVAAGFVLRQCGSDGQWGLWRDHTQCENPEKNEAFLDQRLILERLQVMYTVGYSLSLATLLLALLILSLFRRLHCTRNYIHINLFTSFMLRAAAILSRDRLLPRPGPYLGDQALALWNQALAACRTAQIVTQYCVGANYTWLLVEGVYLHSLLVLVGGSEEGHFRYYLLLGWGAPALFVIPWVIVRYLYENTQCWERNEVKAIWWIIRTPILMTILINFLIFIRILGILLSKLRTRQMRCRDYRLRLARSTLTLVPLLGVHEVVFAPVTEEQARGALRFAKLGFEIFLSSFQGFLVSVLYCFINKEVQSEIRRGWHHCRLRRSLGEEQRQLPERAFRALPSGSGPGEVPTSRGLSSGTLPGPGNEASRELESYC
Method in brief: (§1)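 Cells were resuspended in HBSS plus HEPES, IBMX (625 μM) and BSA, then dispensed with antibody at 10,000 per well. Agonists followed as 22-point twofold series, 30 min at room temperature. Antibody reagent and detection steps ran 1 h and overnight in the dark before luminescence.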

GLP-1R [1] = target: T2, GLP-1R (Homo sapiens, UniProt P43220); experiment: HitHunter cAMP assay (GLP-1R); conditions: cAMP; for Emax: read-out: (Emax) GLP-1R
Method in brief: as §1

GLP-1R [2] = target: T2, GLP-1R; experiment: PathHunter β-arrestin assay
Method in brief: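 Agonist concentration–response (22 points, 2-fold steps, duplicates) was run on cells plated the previous day in BSA-supplemented (0.2%) medium. Stimulation lasted 90 min at 37 °C, followed by a 3 h dark incubation with detection reagent at room temperature and a luminescence read.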

[3] = Table 3A, read-out: EC50 GIP-R/nM
[4] = Table 3A, read-out: EC50 GLP-1R/nM
[5] = PathHunter β-arrestin assay, read-out: β-arrestin activity EC50

T2 sequence (P43220 24-463): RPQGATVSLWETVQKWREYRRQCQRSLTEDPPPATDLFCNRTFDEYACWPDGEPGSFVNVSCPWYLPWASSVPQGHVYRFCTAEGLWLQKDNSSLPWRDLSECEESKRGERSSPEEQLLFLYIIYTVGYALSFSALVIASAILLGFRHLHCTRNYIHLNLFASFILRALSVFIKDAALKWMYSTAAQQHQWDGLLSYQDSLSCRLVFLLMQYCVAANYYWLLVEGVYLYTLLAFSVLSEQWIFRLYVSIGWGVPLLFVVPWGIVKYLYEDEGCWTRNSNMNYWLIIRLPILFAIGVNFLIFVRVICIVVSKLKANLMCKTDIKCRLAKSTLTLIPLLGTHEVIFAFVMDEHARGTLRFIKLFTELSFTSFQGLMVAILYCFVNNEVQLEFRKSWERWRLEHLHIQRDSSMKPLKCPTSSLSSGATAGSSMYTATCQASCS

SMILES | Emax (GIP-R; Table 3A) [%] | EC50 (GIP-R; [3]) [nM] | EC50 (GLP-1R [1]; [4]) [nM] | EC50 (GLP-1R [2]; [5]) [nM] | Emax (GLP-1R [1]; Table 3A) [%] | EC50 (GIP-R; Table 3, read-out: EC50 GIP-R/nM) [nM] | Emax at 1 µM (GIP-R; read-out: (Emax) GIP-R at 1 μM, Table 3, at 1 μM) [%] | Emax (GLP-1R [1]; Table 3) [%] | EC50 (GLP-1R [1]; Table 3, read-out: EC50 GLP-1R/nM) [nM] | EC50 (GIP-R; EC50 GIP-R/nM, Table 3) [nM] | EC50 (GIP-R; EC50 GIP-R/nM, Table 3A) [nM] | Emax (GIP-R; Table 3) [%] | EC50 (GLP-1R [1]; EC50 GLP-1R/nM, Table 3) [nM] | EC50 (GLP-1R [1]; EC50 GLP-1R/nM, Table 3A) [nM] | EC50 (GLP-1R [2]) [nM]
CCCCCCCCCCCCCCCC(=O)N[C@@H](CCC(=O)NCCCC[C@H](NC(=O)[C@H](CO)NC(=O)[C@@H]1CCCN1C(=O)[C@@H]1CCCN1C(=O)[C@@H]1CCCN1C(=O)[C@H](C)NC(=O)CNC(=O)[C@H](CO)NC(=O)[C@H](CO)NC(=O)[C@@H]1CCCN1C(=O)CNC(=O)CNC(=O)[C@H](C)NC(=O)[C@H](CC(C)C)NC(=O)[C@H](CC(C)C)NC(=O)[C@H](Cc1c[nH]c2ccccc12)NC(=O)[C@H](CC(N)=O)NC(=O)[C@@H](NC(=O)[C@H](Cc1ccccc1)NC(=O)[C@H](CCC(=O)O)NC(=O)C(C)(C)NC(=O)[C@H](C)NC(=O)[C@H](C)NC(=O)[C@H](CCC(N)=O)NC(=O)[C@H](CCCCN)NC(=O)[C@H](CC(=O)O)NC(=O)[C@H](CC(C)C)NC(=O)[C@H](Cc1ccc(O)cc1)NC(=O)[C@@H](NC(=O)[C@H](CO)NC(=O)[C@H](Cc1ccc(O)cc1)NC(=O)[C@H](CC(=O)O)NC(=O)[C@H](CO)NC(=O)[C@@H](NC(=O)[C@H](Cc1ccccc1)NC(=O)[C@@H](NC(=O)CNC(=O)[C@H](CCC(=O)O)NC(=O)CC(C)(C)C(=O)NCCN1CCCCC1=O)[C@@H](C)O)[C@@H](C)O)[C@@H](C)CC)C(C)C)C(N)=O)C(=O)O [Compound 204] | 98 | 10 to 100 | < 0.1 | 20 to 1000 | – | – | – | – | – | – | – | – | – | – | –
CCCCCCCCCCCCCCCC(=O)N[C@@H](CCC(=O)NCCCC[C@H](NC(=O)[C@H](CO)NC(=O)[C@@H]1CCCN1C(=O)[C@@H]1CCCN1C(=O)[C@@H]1CCCN1C(=O)[C@H](C)NC(=O)CNC(=O)[C@H](CO)NC(=O)[C@H](CO)NC(=O)[C@@H]1CCCN1C(=O)CNC(=O)CNC(=O)[C@H](C)NC(=O)[C@H](CC(C)C)NC(=O)[C@H](CC(C)C)NC(=O)[C@H](Cc1c[nH]c2ccccc12)NC(=O)[C@H](CC(N)=O)NC(=O)[C@@H](NC(=O)[C@H](Cc1ccccc1)NC(=O)[C@H](CCC(=O)O)NC(=O)C(C)(C)NC(=O)[C@H](C)NC(=O)[C@H](C)NC(=O)[C@H](CCC(N)=O)NC(=O)[C@H](CCCCN)NC(=O)[C@H](CC(=O)O)NC(=O)[C@H](CC(C)C)NC(=O)[C@H](Cc1ccc(O)cc1)NC(=O)[C@@H](NC(=O)[C@H](CO)NC(=O)[C@H](Cc1ccc(O)cc1)NC(=O)[C@H](CC(=O)O)NC(=O)[C@H](CO)NC(=O)[C@@H](NC(=O)[C@H](Cc1ccccc1)NC(=O)[C@@H](NC(=O)CNC(=O)[C@H](CCC(=O)O)NC(=O)[C@H](C)NC(=O)CN1CCCCC1=O)[C@@H](C)O)[C@@H](C)O)[C@@H](C)CC)C(C)C)C(N)=O)C(=O)O [Compound 211] | 50 | 0.1 to 1 | < 0.1 | 10 to 1000 | 91 | – | – | – | – | – | – | – | – | – | –
CC[C@H](C)[C@H](NC(=O)[C@H](CO)NC(=O)[C@H](Cc1ccc(O)cc1)NC(=O)[C@H](CC(=O)O)NC(=O)[C@H](CO)NC(=O)[C@@H](NC(=O)[C@H](Cc1ccccc1)NC(=O)[C@@H](NC(=O)CNC(=O)[C@H](CCC(=O)O)NC(=O)CN1C(=O)CSC1=O)[C@@H](C)O)[C@@H](C)O)C(=O)N[C@@H](Cc1ccc(O)cc1)C(=O)N[C@@H](CC(C)C)C(=O)N[C@@H](CC(=O)O)C(=O)N[C@@H](CCCCN)C(=O)N[C@@H](CCC(N)=O)C(=O)N[C@@H](C)C(=O)N[C@@H](C)C(=O)NC(C)(C)C(=O)N[C@@H](CCC(=O)O)C(=O)N[C@@H](Cc1ccccc1)C(=O)N[C@H](C(=O)N[C@@H](CC(N)=O)C(=O)N[C@@H](Cc1c[nH]c2ccccc12)C(=O)N[C@@H](CC(C)C)C(=O)N[C@@H](CC(C)C)C(=O)N[C@@H](C)C(=O)NCC(=O)NCC(=O)N1CCC[C@H]1C(=O)N[C@@H](CO)C(=O)N[C@@H](CO)C(=O)NCC(=O)N[C@@H](C)C(=O)N1CCC[C@H]1C(=O)N1CCC[C@H]1C(=O)N1CCC[C@H]1C(=O)N[C@@H](CO)C(=O)N[C@@H](CCCCN)C(N)=O)C(C)C [Compound 185] | – | > 1000 | 0.1 to 1 | > 1000 | 97 | > 1000 | 8.6 | 97 | 0.1 to 1 | – | – | – | – | – | –
CCCCCCCCCCCCCCCC(=O)N[C@@H](CCC(=O)NCCCC[C@H](NC(=O)[C@H](CO)NC(=O)[C@@H]1CCCN1C(=O)[C@@H]1CCCN1C(=O)[C@@H]1CCCN1C(=O)[C@H](C)NC(=O)CNC(=O)[C@H](CO)NC(=O)[C@H](CO)NC(=O)[C@@H]1CCCN1C(=O)CNC(=O)CNC(=O)[C@H](C)NC(=O)[C@H](CC(C)C)NC(=O)[C@H](CC(C)C)NC(=O)[C@H](Cc1c[nH]c2ccccc12)NC(=O)[C@H](CC(N)=O)NC(=O)[C@@H](NC(=O)[C@H](Cc1ccccc1)NC(=O)[C@H](CCC(=O)O)NC(=O)C(C)(C)NC(=O)[C@H](C)NC(=O)[C@H](C)NC(=O)[C@H](CCC(N)=O)NC(=O)[C@H](CCCCN)NC(=O)[C@H](CC(=O)O)NC(=O)[C@H](CC(C)C)NC(=O)[C@H](Cc1ccc(O)cc1)NC(=O)[C@@H](NC(=O)[C@H](CO)NC(=O)[C@H](Cc1ccc(O)cc1)NC(=O)[C@H](CC(=O)O)NC(=O)[C@H](CO)NC(=O)[C@@H](NC(=O)[C@H](Cc1ccccc1)NC(=O)[C@@H](NC(=O)CNC(=O)[C@H](CCC(=O)O)NC(=O)CN(C)C(=O)CN1CCCCC1=O)[C@@H](C)O)[C@@H](C)O)[C@@H](C)CC)C(C)C)C(N)=O)C(=O)O [Compound 205] | 61 | 1 to 10 | < 0.1 | > 1000 | – | – | – | – | – | – | – | – | – | – | –
CC[C@H](C)[C@H](NC(=O)[C@H](CO)NC(=O)[C@H](Cc1ccc(O)cc1)NC(=O)[C@H](CC(=O)O)NC(=O)[C@H](CO)NC(=O)[C@@H](NC(=O)[C@H](Cc1ccccc1)NC(=O)[C@@H](NC(=O)CNC(=O)[C@H](CCC(=O)O)NC(=O)CSCC(=O)NCCN1C(=O)c2cccnc2C1=O)[C@@H](C)O)[C@@H](C)O)C(=O)N[C@@H](Cc1ccc(O)cc1)C(=O)N[C@@H](CC(C)C)C(=O)N[C@@H](CC(=O)O)C(=O)N[C@@H](CCCCN)C(=O)N[C@@H](CCC(N)=O)C(=O)N[C@@H](C)C(=O)N[C@@H](C)C(=O)NC(C)(C)C(=O)N[C@@H](CCC(=O)O)C(=O)N[C@@H](Cc1ccccc1)C(=O)N[C@H](C(=O)N[C@@H](CC(N)=O)C(=O)N[C@@H](Cc1c[nH]c2ccccc12)C(=O)N[C@@H](CC(C)C)C(=O)N[C@@H](CC(C)C)C(=O)N[C@@H](C)C(=O)NCC(=O)NCC(=O)N1CCC[C@H]1C(=O)N[C@@H](CO)C(=O)N[C@@H](CO)C(=O)NCC(=O)N[C@@H](C)C(=O)N1CCC[C@H]1C(=O)N1CCC[C@H]1C(=O)N1CCC[C@H]1C(=O)N[C@@H](CO)C(=O)N[C@@H](CCCCN)C(N)=O)C(C)C [Compound 160] | 109 to 113 | – | – | – | 85 to 95 | – | – | 85 to 95 | – | 0.1 to 1 | 0.1 to 1 | 109 to 113 | 1 to 10 | 1 to 10 | > 1000
CCCCCCCCCCCCCCCC(=O)N[C@@H](CCC(=O)NCCCC[C@H](NC(=O)[C@H](CO)NC(=O)[C@@H]1CCCN1C(=O)[C@@H]1CCCN1C(=O)[C@@H]1CCCN1C(=O)[C@H](C)NC(=O)CNC(=O)[C@H](CO)NC(=O)[C@H](CO)NC(=O)[C@@H]1CCCN1C(=O)CNC(=O)CNC(=O)[C@H](C)NC(=O)[C@H](CC(C)C)NC(=O)[C@H](CC(C)C)NC(=O)[C@H](Cc1c[nH]c2ccccc12)NC(=O)[C@H](CC(N)=O)NC(=O)[C@@H](NC(=O)[C@H](Cc1ccccc1)NC(=O)[C@H](CCC(=O)O)NC(=O)C(C)(C)NC(=O)[C@H](C)NC(=O)[C@H](C)NC(=O)[C@H](CCC(N)=O)NC(=O)[C@H](CCCCN)NC(=O)[C@H](CC(=O)O)NC(=O)[C@H](CC(C)C)NC(=O)[C@H](Cc1ccc(O)cc1)NC(=O)[C@@H](NC(=O)[C@H](CO)NC(=O)[C@H](Cc1ccc(O)cc1)NC(=O)[C@H](CC(=O)O)NC(=O)[C@H](CO)NC(=O)[C@@H](NC(=O)[C@H](Cc1ccccc1)NC(=O)[C@@H](NC(=O)CNC(=O)[C@H](CCC(=O)O)NC(=O)CSCC(=O)NCCn1cc(C)ccc1=O)[C@@H](C)O)[C@@H](C)O)[C@@H](C)CC)C(C)C)C(N)=O)C(=O)O [Compound 238] | 82 | – | – | – | 95 | – | – | – | – | – | 1 to 10 | – | – | 0.1 to 1 | > 1000
